According to patent publication US20170327471A1, “Aryl sulphide and aryl sulphoxide derivatives having C-C-attached uracils as pesticides” (BAYER CROPSCIENCE AKTIENGESELLSCHAFT, priority 2014, published 2017):
Like-named read-outs stand apart in the source and are kept apart here.

Tests used:
[1] = logP by reversed-phase HPLC (EEC Directive 79/831 Annex V.A8); type: physicochemical; conditions: for chromatographic logP: reversed-phase C18 HPLC column
Experimental: The logP values were determined in accordance with EEC Directive 79/831 Annex V.A8 by HPLC (High Performance Liquid Chromatography) using reversed-phase columns (C 18) by the following methods:
^[a] The LC-MS determination in the acidic range was effected at pH 2.7 with 0.1% aqueous formic acid and acetonitrile (contains 0.1% formic acid) as eluents; linear gradient from 10% acetonitrile to 95% acetonitrile. Called logP (HCOOH) in the table.
^[b] LC-MS determination in the neutral range was effected at pH 7.8 with 0.001 molar aqueous ammonium hydrogencarbonate solution and acetonitrile as eluents; linear gradient from 10% acetonitrile to 95% acetonitrile. Called logP (neutral) in the table.
Calibration was effected with unbranched alkan-2-ones (having 3 to 16 carbon atoms) with known logP values (logP values determined on the basis of the retention times by linear interpolation between two successive alkanones).

Boophilus microplus = Boophilus microplus injection test; type: in vivo; conditions: application rate, injection into engorged adult female cattle ticks, after 7 days
Experimental: 1. Boophilus microplus—Injection Test Solvent: dimethyl sulphoxide
To produce a suitable preparation of active compound, 10 mg of active compound are mixed with 0.5 ml of solvent and the concentrate is diluted with solvent to the desired concentration.
1 μl of the active compound solution is injected into the abdomen of 5 engorged adult female cattle ticks (Boophilus microplus). The animals are transferred into dishes and kept in a climate-controlled room.
Efficacy is assessed after 7 days by laying of fertile eggs. Eggs which are not visibly fertile are stored in a climate-controlled cabinet until the larvae hatch after about 42 days. An efficacy of 100% means that none of the ticks has laid any fertile eggs; 0% means that all the eggs are fertile.

Meloidogyne incognita = Meloidogyne incognita test (sand, lettuce, solvent acetone); type: in vivo; conditions: application rate 20 ppm, after 14 days, lettuce in sand
Experimental: 2. Meloidogyne incognita Test Solvent: 125.0 parts by weight of acetone To produce a suitable preparation of active compound, 1 part by weight of active compound is mixed with the stated amount of solvent and the concentrate is diluted with water to the desired concentration. Vessels are filled with sand, active compound solution, an egg/larvae suspension of the southern root-knot nematode (Meloidogyne incognita) and lettuce seeds. The lettuce seeds germinate and the plants develop. The galls develop on the roots. After 14 days, the nematicidal efficacy in % is determined by the formation of galls. 100% means that no galls were found; 0% means that the number of galls on the treated plants corresponds to the untreated control.

Phaedon cochleariae = Phaedon cochleariae spray test; type: in vivo; conditions: application rate 500 g/ha, after 7 days, Chinese cabbage leaf discs
Experimental: 3. Phaedon cochleariae—Spray Test Solvent: 78.0 parts by weight of acetone • • 1.5 parts by weight of dimethylformamide Emulsifier: alkylaryl polyglycol ether
(§1) To produce a suitable preparation of active compound, 1 part by weight of active compound is dissolved using the stated parts by weight of solvent and made up with water containing an emulsifier concentration of 1000 ppm until the desired concentration is attained. To produce further test concentrations, the preparation is diluted with emulsifier-containing water.
After 7 days, the efficacy in % is determined. 100% means that all the beetle larvae have been killed; 0% means that no beetle larvae have been killed.

Tetranychus urticae [2] = experiment: Tetranychus urticae spray test, OP-resistant (bean leaf discs); type: in vivo; conditions: application rate 500 g/ha, after 6 days
Experimental: 4. Tetranychus urticae—Spray Test, OP-Resistant Solvent: 78.0 parts by weight of acetone • • 1.5 parts by weight of dimethylformamide Emulsifier: alkylaryl polyglycol ether
as §1
Discs of bean leaves (Phaseolus vulgaris) infested with all stages of the greenhouse red spider mite (Tetranychus urticae) are sprayed with an active compound preparation of the desired concentration.
After 6 days, the efficacy in % is determined. 100% means that all the spider mites have been killed; 0% means that none of the spider mites have been killed.

Tetranychus urticae [3] = experiment: Tetranychus urticae spray test, OP-resistant (bean plants); type: in vivo; conditions: application rate 20 ppm, after 7 days
Experimental: 5. Tetranychus urticae-Spray Test, OP-Resistant Solvent: 7 parts by weight of dimethylformamide Emulsifier: alkylaryl polyglycol ether
as §1, with “water. If the addition of ammonium salts or/and penetrants is required, these are each added in a concentration of 1000 ppm to the preparation solution.” for “water.”
Bean plants (Phaseolus vulgaris) heavily infested by all stages of the greenhouse red spider mite (Tetranychus urticae) are sprayed with an active compound preparation of the desired concentration.
After 7 days, the efficacy in % is determined. 100% means that all the spider mites have been killed; 0% means that none of the spider mites have been killed.

Tetranychus urticae [4] = experiment: Tetranychus urticae drench test, OP-resistant; type: in vivo; conditions: application rate 4 ppm, after 14 days, bean plants in soil
Experimental: 6. Tetranychus urticae—Drench Test, OP-Resistant Solvent: 7 parts by weight of dimethylformamide Emulsifier: 2 parts by weight of alkylaryl polyglycol ether
To produce a suitable preparation of active compound, 1 part by weight of active compound is mixed with the stated amounts of solvent and emulsifier, and the concentrate is diluted with water to the desired concentration, where the volume of soil to be drenched has to be taken into account. Here, it has to be made sure that a concentration of 40 ppm of emulsifier in the soil is not exceeded. To produce further test concentrations, the mixture is diluted with water.
Bean plants (Phaseolus vulgaris) in pots filled with soil, which plants are heavily infested by all stages of the greenhouse red spider mite (Tetranychus urticae), are watered with an active compound preparation of the desired concentration.
After 14 days, the efficacy in % is assessed. 100% means that all spider mites have been killed; 0% means that none of the spider mites have been killed.

[5] = acidic range, pH 2.7, 0.1% aqueous formic acid/acetonitrile, read-out: logP (HCOOH) = logP[a]
[6] = neutral range, pH 7.8, 0.001 molar aqueous ammonium hydrogencarbonate/acetonitrile, read-out: logP (neutral) = logP[b]
[7] = acidic range, pH 2.7, 0.1% aqueous formic acid/acetonitrile
[8] = neutral range, pH 7.8, 0.001 molar aqueous ammonium hydrogencarbonate/acetonitrile

| SMILES | chromatographic logP [1, 5] | efficacy (spider mites killed) (Tetranychus urticae [2]) | logP (HCOOH) = logP[a] [1, 7] | logP (neutral) = logP[b] [1, 8] | other results |
| --- | --- | --- | --- | --- | --- |
| Cc1cc(F)c(-c2cc(=O)n(C)c(=O)n2C)cc1SCC(F)(F)F [Example I-2, 6-{2-Fluoro-4-methyl-5-[(2,2,2-trifluoroethyl)sulphanyl]phenyl}-1,3-dimethylpyrimidine-2,4(1H,3H)-dione] | 2.86 | 100% |  |  | chromatographic logP [1, 6]: 2.74; efficacy (no fertile eggs laid) (Boophilus microplus): 100%; nematicidal efficacy (formation of galls) (Meloidogyne incognita): 90%; efficacy (beetle larvae killed) (Phaedon cochleariae): 83%; efficacy (spider mites killed) (Tetranychus urticae [3]): 100%; efficacy (spider mites killed) (Tetranychus urticae [4]): 99% |
| CCn1c(=O)c(F)c(-c2cc(SCC(F)(F)F)c(C)cc2F)n(C)c1=O [Example I-3, 3-Ethyl-5-fluoro-6-{2-fluoro-4-methyl-5-[(2,2,2-trifluoroethyl)-sulphanyl]phenyl}-1-methylpyrimidine-2,4(1H,3H)-dione] | 3.32 |  |  |  | chromatographic logP [1, 6]: 3.42 |
| Cc1cc(C)c(-c2cc(=O)n(C)c(=O)n2C)cc1SCC(F)(F)F [Example I-4] | 2.98 |  |  |  |  |
| CCCn1c(-c2cc(SCC(F)(F)F)c(C)cc2F)cc(=O)n(CCC)c1=O [Example I-5] |  | 90% | 4.26 | 4.16 |  |
| Cc1cc(F)c(-c2cc(=O)n(C(C)C)c(=O)n2C(C)C)cc1SCC(F)(F)F [Example I-6] |  | 100% | 4.52 | 4.42 |  |
| CCn1c(-c2cc(SCC(F)(F)F)c(C)cc2F)cc(=O)n(CC)c1=O [Example I-7] |  | 90% | 3.54 | 3.47 | efficacy (spider mites killed) (Tetranychus urticae [3]): 100% |
| CCn1c(=O)[nH]c(-c2cc(SCC(F)(F)F)c(C)cc2F)c(F)c1=O [Example I-8] |  |  | 2.72 |  |  |
| Cc1cc(F)c(-c2cc(=O)n(C(C)C)c(=O)n2C(C)C)cc1[S+]([O-])CC(F)(F)F (stereo not drawn) [Example I-9] |  | 100% | 3.19 | 3.10 | efficacy (no fertile eggs laid) (Boophilus microplus): 100% |
| CCn1c(-c2cc([S+]([O-])CC(F)(F)F)c(C)cc2F)cc(=O)n(CC)c1=O (stereo not drawn) [Example I-10] |  | 100% | 2.37 | 2.28 | efficacy (no fertile eggs laid) (Boophilus microplus): 100%; efficacy (spider mites killed) (Tetranychus urticae [3]): 100%; efficacy (spider mites killed) (Tetranychus urticae [4]): 95% |
| CCn1c(=O)c(F)c(-c2cc([S+]([O-])CC(F)(F)F)c(C)cc2F)n(C)c1=O (stereo not drawn) [Example I-11] |  | 100% | 2.20 | 2.19 | efficacy (no fertile eggs laid) (Boophilus microplus): 100% |
| Cc1cc(C)c([S+]([O-])CC(F)(F)F)cc1-c1cc(=O)n(C)c(=O)n1C (stereo not drawn) [Example I-12] |  | 100% | 1.89 | 1.82 | efficacy (no fertile eggs laid) (Boophilus microplus): 100% |
| Cc1cc(F)c(-c2cc(=O)n(C)c(=O)[nH]2)cc1SCC(F)(F)F [Example I-13, 6-{2-Fluoro-4-methyl-5-[(2,2,2-trifluoroethyl)sulphanyl]phenyl}-3-methylpyrimidine-2,4(1H,3H)-dione] | 2.38 |  |  |  | chromatographic logP [1, 6]: 2.25 |
| Cc1cc(F)c(-c2cc(=O)[nH]c(=S)[nH]2)cc1SCC(F)(F)F [Example I-14, 6-{2-Fluoro-4-methyl-5-[(2,2,2-trifluoroethyl)sulphanyl]phenyl}-2-thioxo-2,3-dihydropyrimidin-4(1H)-one] | 2.34 |  |  |  | chromatographic logP [1, 6]: 1.54 |
| Cc1cc(F)c(-c2cc(=O)n(CC(F)(F)F)c(=S)n2C)cc1SCC(F)(F)F [Example I-15] |  | 90% | 4.34 |  | efficacy (beetle larvae killed) (Phaedon cochleariae): 100%; efficacy (spider mites killed) (Tetranychus urticae [3]): 100%; efficacy (spider mites killed) (Tetranychus urticae [4]): 100% |
| Cc1cc(F)c(-c2c(Cl)c(=O)n(C)c(=O)n2C)cc1SCC(F)(F)F [Example I-16, 5-Chloro-6-{2-fluoro-4-methyl-5-[(2,2,2-trifluoroethyl)sulphanyl]phenyl}-1,3-dimethylpyrimidine-2,4(1H,3H)-dione] | 3.15 | 90% |  |  |  |
| Cc1cc(F)c(-c2cc(=O)n(C)c(=O)[nH]2)cc1[S+]([O-])CC(F)(F)F (stereo not drawn) [Example I-17] |  |  | 1.41 | 1.43 |  |
| CCn1c(=O)c(F)c(Cl)n(C)c1=O [II-01, 6-chloro-3-ethyl-5-fluoro-1-methylpyrimidine-2,4(1H,3H)-dione] | 1.31 |  |  |  |  |
| CCn1c(=O)c(C)c(Cl)n(C)c1=O [II-02, 6-chloro-3-ethyl-1,5-dimethylpyrimidine-2,4(1H,3H)-dione] | 1.59 |  |  |  |  |
| CCOC(=O)CC(=O)c1cc(SCC(F)(F)F)c(C)cc1F [VI-01, ethyl 3-{2-fluoro-4-methyl-5-[(2,2,2-trifluoroethyl)sulphanyl]phenyl}-3-oxopropanoate] | 3.57 |  |  |  | chromatographic logP [1, 6]: 3.59 |
